{"source": "patent US20160264570A1", "about": "“METHOD OF BLOCKING TRANSMISSION OF MALARIAL PARASITE” (THE UNITED STATES OF AMERICA, AS REPRESENTED BY THE …, priority 2013, published 2016)", "key": {"[1]": {"tested_on": "P. falciparum strain Dd2 gametocytes", "experiment": "alamarBlue gametocyte viability assay, strain Dd2"}, "[2]": {"tested_on": "HepG2 cells", "experiment": "Cytotoxicity in mammalian HepG2 cell line", "settings": "for % Max response: HepG2"}, "[3]": {"tested_on": "P. falciparum strain 3D7 gametocytes", "experiment": "alamarBlue gametocyte viability assay, strain 3D7"}, "[4]": {"tested_on": "P. falciparum strain HB3 gametocytes", "experiment": "alamarBlue gametocyte viability assay, strain HB3"}, "[5]": {"tested_on": "Asexual parasites of P. falciparum strain 3D7", "experiment": "SYBR Green viability assay on asexual parasites", "assay_type": "cell-based, Plasmodium falciparum", "settings": "read-out: IC50 in viability assay using asexual parasites"}, "[6]": {"tested_on": "Plasmodium berghei ANKA", "experiment": "Malaria mouse model of gametocyte transmission to mosquitoes (oocyst count)", "assay_type": "in vivo", "settings": "mice, Anopheles stephensi"}, "[7]": {"tested_on": "Dd2 asexual parasites", "settings": "compared to 3D7; ref [27]; cited from earlier work"}, "[8]": {"settings": "Table 2, Inactive = no significant activity at highest tested concentration (46 μM)"}, "[9]": {"settings": "Table 4, Inactive = no significant activity at highest tested concentration (46 μM)"}, "[10]": {"settings": "Plasmodium falciparum, HB3, read-out: HB3-IC50"}, "[11]": {"settings": "read-out: Dd2-IC50, Table 3, 11 concentrations, 1:3 dilution, three times"}, "[12]": {"settings": "read-out: 3D7-IC50, Table 3, 11 concentrations, 1:3 dilution, three times"}, "[13]": {"settings": "read-out: Gametocyte IC50, mean of at least 3 independent experiments, P. falciparum 3D7 gametocyte"}, "[14]": {"settings": "read-out: HB3-IC50, Table 3, 11 concentrations, 1:3 dilution, three times"}, "[15]": {"settings": "Plasmodium falciparum, DD2, read-out: IC50 against Dd2 gametocytes"}, "[16]": {"settings": "Plasmodium falciparum, 3D7, read-out: 3D7-IC50"}, "[17]": {"settings": "read-out: IC50 (μM) in HepG2, Table 2, Inactive = no significant activity at highest tested concentration (46 μM)"}, "[18]": {"settings": "read-out: IC50 (μM) in HepG2 cells, Table 4, Inactive = no significant activity at highest tested concentration (46 μM)"}}, "note": "Read-outs that look alike come from different tables or passages of the source. Starred links: 1 amine or outer side, 2 acyl side, 3 side chain; linkers in the order of their positions; H or OH if unused. Positions of bridges follow the written chain, without caps; N, C: chain ends. Non-standard residues stand in square brackets, D forms with d. Residues, ends and D or L forms follow the SMILES beside them. Chains are numbered I, II in the order given. Actinocin(9to1) = Cc1c2oc3c(C)ccc(C(=O)[*:1])c3nc-2c(C(=O)[*:2])c(N)c1=O; NMeV = CN[C@H](C(=O)O)C(C)C; Sar = CNCC(=O)O"}
{"compound": "Cc1c2oc3c(C)ccc(C(=O)N[C@@H]4C(=O)N[C@H](C(C)C)C(=O)N5CCC[C@H]5C(=O)N(C)CC(=O)N(C)[C@@H](C(C)C)C(=O)O[C@@H]4C)c3nc-2c(C(=O)N[C@@H]2C(=O)N[C@H](C(C)C)C(=O)N3CCC[C@H]3C(=O)N(C)CC(=O)N(C)[C@@H](C(C)C)C(=O)O[C@@H]2C)c(N)c1=O", "note": "[Dactinomycin] (I: T[dV]P[Sar][NMeV] / II: T[dV]P[Sar][NMeV]; ester I:1-I:C, II:1-II:C; linker I:N-II:N via Actinocin(9to1))", "values": [{"measurement": "IC50", "setting": "[1]; Plasmodium falciparum, DD2, read-out: Dd2-IC50", "result": 33, "unit": "nM"}, {"measurement": "Emax", "setting": "[2]; Homo sapiens, HepG2, read-out: % Max response", "result": 1, "unit": "%"}, {"measurement": "IC50 (μM) in HepG2", "setting": "[2]; [8]", "result": "Inactive"}, {"measurement": "IC50 (μM) in HepG2 cells", "setting": "[2]; [9]", "result": "Inactive"}, {"measurement": "IC50", "setting": "[3]; Plasmodium falciparum, 3D7, read-out: Gametocyte IC50", "result": 15, "unit": "nM"}, {"measurement": "IC50", "setting": "[4]; [10]", "result": 19, "unit": "nM"}]}
{"compound": "COc1ncc(-c2ccc3nccc(-c4ccnnc4)c3c2)cc1NS(=O)(=O)c1ccc(F)cc1F", "note": "[GSK-458]", "values": [{"measurement": "IC50", "setting": "[1]; [11]", "result": 1480, "unit": "nM"}, {"measurement": "% Max response", "setting": "[2]; Table 2", "result": 33, "unit": "%"}, {"measurement": "IC50 (μM) in HepG2", "setting": "[2]; [8]", "result": "Inactive"}, {"measurement": "% Max response", "setting": "[2]; Table 4", "result": 33, "unit": "%"}, {"measurement": "IC50 (μM) in HepG2 cells", "setting": "[2]; [9]", "result": "Inactive"}, {"measurement": "IC50", "setting": "[3]; [12]", "result": 935, "unit": "nM"}, {"measurement": "IC50", "setting": "[3]; [13]", "result": 935, "unit": "nM"}, {"measurement": "IC50", "setting": "[4]; [14]", "result": 332, "unit": "nM"}]}
{"compound": "CN(C)c1ccc2nc3ccc(=[N+](C)C)cc-3sc2c1", "note": "[Methylene blue]", "values": [{"measurement": "IC50", "setting": "[1]; Plasmodium falciparum, DD2, read-out: Dd2-IC50, Table 3, 11 concentrations, 1:3 dilution, three times", "result": 526, "unit": "nM"}, {"measurement": "IC50", "setting": "[1]; [15]", "result": 526, "unit": "nM"}, {"measurement": "% Max response", "setting": "[2]; Table 4", "result": "−20", "unit": "%"}, {"measurement": "IC50 (μM) in HepG2 cells", "setting": "[2]; [9]", "result": "Inactive"}, {"measurement": "IC50", "setting": "[3]; [16]", "result": 300, "unit": "nM"}, {"measurement": "IC50", "setting": "[4]; [10]", "result": 935, "unit": "nM"}]}
{"compound": "Cc1[nH]c2ccccc2c1CCNCc1ccc(/C=C/C(=O)NO)cc1", "note": "[Panobinostat]", "values": [{"measurement": "IC50", "setting": "[1]; [15]", "result": 148, "unit": "nM"}, {"measurement": "times more potent against Dd2 compared to 3D7", "setting": "[1]; gametocytes", "result": 6.3, "unit": "times"}, {"measurement": "IC50", "setting": "[2]; Homo sapiens, HepG2, read-out: IC50 (μM) in HepG2 cells", "result": 0.372, "unit": "µM"}, {"measurement": "% Max response", "setting": "[2]; Table 4", "result": "−74", "unit": "%"}, {"measurement": "IC50", "setting": "[3]; [16]", "result": 900, "unit": "nM"}, {"measurement": "IC50", "setting": "[4]; Plasmodium falciparum, HB3, read-out: IC50 against HB3 gametocytes", "result": 118, "unit": "nM"}, {"measurement": "fold more potent against HB3 compared to 3D7", "setting": "[4]; gametocytes", "result": 7.9, "unit": "fold"}]}
{"compound": "C=CC1CN2CCC1CC2C(O)c1ccnc2ccc(OC)cc12.C=CC1CN2CCC1CC2C(O)c1ccnc2ccc(OC)cc12.O=S(=O)(O)O", "note": "(stereo not drawn) [Quinine hemisulfate]", "values": [{"measurement": "IC50", "setting": "[1]; [11]", "result": 83, "unit": "nM"}, {"measurement": "% Max response", "setting": "[2]; Table 2", "result": 2, "unit": "%"}, {"measurement": "IC50 (μM) in HepG2", "setting": "[2]; [8]", "result": "Inactive"}, {"measurement": "% Max response", "setting": "[2]; Table 4", "result": 2, "unit": "%"}, {"measurement": "IC50 (μM) in HepG2 cells", "setting": "[2]; [9]", "result": "Inactive"}, {"measurement": "IC50", "setting": "[3]; [12]", "result": 300, "unit": "nM"}, {"measurement": "IC50", "setting": "[3]; [13]", "result": 345, "unit": "nM"}, {"measurement": "IC50", "setting": "[4]; [14]", "result": 235, "unit": "nM"}]}
{"compound": "Nc1ccc(-c2ccc3ncc4ccc(=O)n(-c5cccc(C(F)(F)F)c5)c4c3c2)cn1", "note": "[Torin 2]", "values": [{"measurement": "IC50", "setting": "[1]; [11]", "result": 12, "unit": "nM"}, {"measurement": "IC50", "setting": "[5]", "result": 2.75, "unit": "nM"}, {"measurement": "% Max response", "setting": "[2]; Table 2", "result": "−46", "unit": "%"}, {"measurement": "% Max response", "setting": "[2]; Table 4", "result": "−46", "unit": "%"}, {"measurement": "cytotoxicity in HepG2 cells", "setting": "[2]; at the highest tested concentration (46 μM)", "result": "partial cytotoxicity"}, {"measurement": "IC50", "setting": "[2]; [17]", "result": 9.35, "unit": "µM"}, {"measurement": "IC50", "setting": "[2]; [18]", "result": 9.35, "unit": "µM"}, {"measurement": "IC50", "setting": "[3]; [13]", "result": 8, "unit": "nM"}, {"measurement": "oocyst production in mosquitoes", "setting": "[6]; single 4 mg/kg dose i.v.", "result": "almost completely eliminated"}, {"measurement": "oocyst production in mosquitoes", "setting": "[6]; single dose of 2 mg/kg i.v.", "result": "significantly reduced"}, {"measurement": "oocyst production in mosquitoes", "setting": "[6]; two 4 mg/kg doses i.v.", "result": "completely blocked"}, {"measurement": "IC50", "setting": "[4]; [14]", "result": 15, "unit": "nM"}]}
{"compound": "CC1=C(CO)C(=O)O[C@@H]([C@@H](C)[C@H]2CC[C@H]3[C@@H]4C[C@H]5O[C@]56[C@@H](O)C=CC(=O)[C@]6(C)[C@H]4CC[C@]23C)C1", "note": "[Withaferin A]", "values": [{"measurement": "IC50", "setting": "[1]; [11]", "result": 372, "unit": "nM"}, {"measurement": "% Max response", "setting": "[2]; Table 2", "result": "−80", "unit": "%"}, {"measurement": "% Max response", "setting": "[2]; Table 4", "result": "−80", "unit": "%"}, {"measurement": "IC50", "setting": "[2]; [17]", "result": 9.35, "unit": "µM"}, {"measurement": "IC50", "setting": "[2]; [18]", "result": 9.35, "unit": "µM"}, {"measurement": "IC50", "setting": "[3]; [12]", "result": 300, "unit": "nM"}, {"measurement": "IC50", "setting": "[3]; [13]", "result": 372, "unit": "nM"}, {"measurement": "IC50", "setting": "[4]; [14]", "result": 1330, "unit": "nM"}]}
{"compound": "CCN(CC)CCCC(C)Nc1ccnc2cc(Cl)ccc12", "note": "(stereo not drawn) [chloroquine]", "values": [{"measurement": "reduction of potency against Dd2 gametocytes compared to 3D7", "setting": "[1]", "result": 3.7, "unit": "fold"}, {"measurement": "fold less potent against Dd2 asexual parasites", "setting": "[7]", "result": 10, "unit": "fold"}]}
{"compound": "Monensin sodium", "values": [{"measurement": "IC50", "setting": "[1]; [11]", "result": 372, "unit": "nM"}, {"measurement": "IC50 (μM) in HepG2", "setting": "[2]", "result": "Inactive"}, {"measurement": "IC50 (μM) in HepG2 cells", "setting": "[2]", "result": "Inactive"}, {"measurement": "% Max response", "setting": "[2]; Table 2", "result": 40, "unit": "%"}, {"measurement": "% Max response", "setting": "[2]; Table 4", "result": 40, "unit": "%"}, {"measurement": "IC50", "setting": "[3]; [12]", "result": 200, "unit": "nM"}, {"measurement": "IC50", "setting": "[3]; [13]", "result": 254, "unit": "nM"}, {"measurement": "IC50", "setting": "[4]; [14]", "result": 264, "unit": "nM"}]}
{"compound": "Zinc pyrithione", "values": [{"measurement": "IC50", "setting": "[1]; [11]", "result": 59, "unit": "nM"}, {"measurement": "% Max response", "setting": "[2]; Table 2", "result": "−99", "unit": "%"}, {"measurement": "% Max response", "setting": "[2]; Table 4", "result": "−99", "unit": "%"}, {"measurement": "IC50", "setting": "[2]; [17]", "result": 2.15, "unit": "µM"}, {"measurement": "IC50", "setting": "[2]; [18]", "result": 2.15, "unit": "µM"}, {"measurement": "IC50", "setting": "[3]; [13]", "result": 93, "unit": "nM"}, {"measurement": "IC50", "setting": "[4]; [14]", "result": 59, "unit": "nM"}]}
